Reference: US9226939B2, “Histone inhibition” (THE AUSTRALIAN NATIONAL UNIVERSITY, priority 2010, dated 2016)

What was measured:
[1] = test system: calf thymus histones; test: Inhibition of histone killing of HMEC (flow cytometry, Calcein-AM/PI); format: cell-based; conditions: for inhibitory activity on histone toxicity (in words) / % histone killing ± SEM: HMEC; for inhibitory activity on histone toxicity (in words): Table 1 discussion; for % histone killing ± SEM: compounds at 50 μg/ml, calf thymus histones 400 μg/ml; for inhibition of cytotoxic effects of histones for HMEC: histones 400 μg/ml
Method: (§1) Different concentrations of calf thymus histones were initially assessed for their toxicity for human umbilical vein endothelial cells (HUVEC) and human microvascular endothelial cells (HMEC). Suspensions of HUVEC/HMEC in Medium199/20% fetal calf serum (FCS) were dispensed into each well of a 96 well plate (1×10^5 cells/well in 50 μl of medium). Calf thymus histones (50 μl/well in M199/20% FCS) were then added to give a final concentration of 100-800 μg/ml followed by 25 μl/well of Calcein-AM in PBS (final concentration 0.04 μM) and 25 propidium iodide (PI) in PBS (final concentration 2.5 μg/ml). Each 96 well plate was incubated at 37° C. for 60 min in a 5% CO2 incubator, placed on ice and the contents of each well analysed by flow cytometry for viable and dead cells. Viable cells were detected as Calcein-AM-bright and PI-dim and dead cells as Calcein-AM-dim and PI-bright. FIG. 1 depicts a typical viability assay comparing HUVEC cultured alone (9.15% dead, 78.6% viable) with HUVEC cultured for 60 min with 200 μg/ml of calf thymus histones (50.4% dead, 35.6% viable). The toxicity of calf thymus histones for HUVEC and HMEC is shown in detail in FIG. 2, with histone toxicity for HUVEC (FIG. 2A) and HMEC (FIG. 2B) being highly concentration dependent, although HMEC were more resistant to histone toxicity than HUVEC. Thus, at 100 μg/ml histones killed 15-20% of HUVEC but had no effect on HMEC viability, whereas at 800 μg/ml histones killed >85% of HUVEC and ˜55% of HMEC (FIG. 1). In subsequent inhibition experiments calf thymus histones were used at 200 μg/ml for HUVEC and 400 μg/ml for HMEC, these concentrations resulting in ˜50% killing of both populations of endothelial cells.
In inhibition experiments the inhibitor (final concentration ranging from 1.6-100 μg/ml) was mixed with calf thymus histones (final concentration 200 or 400 μg/ml) prior to the addition of HUVEC/HMEC, Calcein-AM and PI to each well.
Using HMEC as the endothelial cell target similar inhibitory effects of maltotriose sulfate (FIG. 6) and the other sulfated oligosaccharides (Table 1) on histone toxicity was observed. In fact, a more detailed analysis of the inhibitory activity of a range of polyanions on histone toxicity, using HMEC as the target endothelial cell, is shown in Table 1.

[2] = test system: lipopolysaccharide (LPS)-induced mouse model of sepsis; test: LPS-induced mouse model of sepsis; format: in vivo
Method: A study was conducted to assess in vivo efficacy of test articles 1 (maltotriose sulfate; TA1), 2 (cellobiose sulfate; TA2), and 3 (heparin; TA3) in a lipopolysaccharide (LPS)-induced mouse model of sepsis. Endotoxemia was induced by intraperitoneal (i.p.) injection with LPS on day 1. Test articles were co-administered i.p. on day 1, and then dosed daily i.p. for an additional 2 days.

[3] = test system: radiolabelled histones; test: Blockade of radiolabelled histone accumulation in rabbit lungs (gamma scintigraphy); format: in vivo; conditions: 15 mg/kg intravenously 15 minutes before radiolabel
[4] = test system: calf thymus histones; test: Inhibition of histone cytotoxicity for HUVEC (flow cytometry, Calcein-AM/PI); format: cell-based; conditions: inhibitor 1.6-100 μg/ml; histones 200 μg/ml
Method: as §1, with “Thus, at 100 μg/ml histones killed 15-20% of HUVEC but had no effect on HMEC viability, whereas at 800 μg/ml histones killed >85% of HUVEC and ˜55% of HMEC (FIG. 1). In subsequent inhibition experiments calf thymus histones were used at 200 μg/ml for HUVEC and 400 μg/ml for HMEC, these concentrations resulting in ˜50% killing of both populations of endothelial cells.” left out

[5] = 15 mg/kg i.p. daily x3, LPS 50 mg/kg
[6] = 15 mg/kg i.p. daily x3, with LPS
[7] = 100 mg/kg i.p. daily x3, with LPS

Row | Compound | inhibitory activity on histone toxicity (in words) [1] | % histone killing ± SEM [1] [%] | other results
1 | O=S(=O)(O)OC[C@H]1O[C@@](COS(=O)(=O)O)(O[C@H]2O[C@H](COS(=O)(=O)O)[C@@H](OS(=O)(=O)O)[C@H](OS(=O)(=O)O)[C@H]2OS(=O)(=O)O)[C@@H](OS(=O)(=O)O)[C@@H]1OS(=O)(=O)O [Sucrose octasulfate, reference compound] | weaker inhibitors | 43.5 ± 4.0 | –
2 | Carboxylated β-cyclodextrin | not | 105.8 ± 19.9 | –
3 | Heparin [reference compound] | active | – | survival (Kaplan-Meier) ([2]; 1.1 mg/kg i.p. daily x3, LPS 50 mg/kg): no apparent change in the survival plot compared to the control; tolerability ([2]; 1.1 mg/kg i.p. daily x3, with LPS): well tolerated
4 | Isomaltotriose sulfate [Isomaltotriose SO4] | – | 49.5 ± 5.4 | –
5 | Propanyl bis-gluconamide SO4 | some inhibitory activity | 27.8 ± 1.5 | –
6 | cellobiose sulfate [Cellobiose SO4] | potent inhibitor | – | accumulation of radiolabelled histones in the lung [3]: blocked; survival (Kaplan-Meier) [2, 5]: extended survival; tolerability [2, 6]: well tolerated; survival (Kaplan-Meier) ([2]; 100 mg/kg i.p. daily x3, LPS 50 mg/kg): extended survival; tolerability [2, 7]: well tolerated
7 | low molecular weight heparin [reference compound] | active | – | –
8 | maltose sulfate [Maltose SO4] | weaker inhibitors | 77.1 ± 4.7 | inhibitory activity on histone cytotoxicity for HUVEC (in words) [4]: weak inhibitor
9 | maltotriose sulfate [Maltotriose SO4] | more active than sulfated isomaltotriose | – | survival (Kaplan-Meier) [2, 5]: extended survival; tolerability [2, 6]: better tolerated; tolerability [2, 7]: appeared to produce some toxicity (cluster of deaths) after the third dose; inhibition of cytotoxic effects of histones for HMEC ([1]; maltotriose sulfate 25 μg/ml): totally; inhibition of cytotoxic effects of histones for HMEC ([1]; maltotriose sulfate 100 μg/ml): partially
10 | panose sulfate [Panose SO4] | more active than sulfated isomaltotriose | – | –
11 | raffinose sulfate [Raffinose SO4] | more active than sulfated isomaltotriose | – | –
12 | sodium maltohexaose sulfate | – | – | accumulation of radiolabelled histones in the lung [3]: blocked
13 | sodium maltotetraose sulfate | – | – | accumulation of radiolabelled histones in the lung [3]: blocked
14 | β-cyclodextrin sulfate [β-cyclodextrin SO4] | active | – | inhibitory activity on histone cytotoxicity for HUVEC (in words) [4]: almost as active as the linear maltotriose sulfate and maltopentaose sulfate
